The values that follow come from patent US20030139349A1, “Benzophenone alpha-d-glycopyranosides, preparation and therapeutic use” (priority 2002, published 2003).

This assay deals with female mice of the C57BL/6J strain. Nature of the assay: Lowering of serum cholesterol level in mice subjected to a fatty diet (single dose). The assay is classed as in vivo. The note with it: total serum cholesterol; female C57BL/6J mice on fatty diet (1.25% cholesterol, 0.5% cholic acid); single dose 100 mg/kg by tubage, suspension in 3% aqueous gum. The protocol: The antiatheromatous activity of the compounds according to the invention was evaluated as a function of their ability to lower the serum cholesterol level in mice subjected to a fatty diet. […] This correlation affords a test which is more rapid than direct experiments on the atheromatous plaque, which require a lengthy treatment of the animals and an expensive histological study of the walls of the aortic arch.
The test used consists in administering a single dose of the compound to female mice of the C57BL/6J strain. The protocol is as follows: On the first day (D0), the mice are fasted from 9 am to 5 pm, a blood sample being taken at 2 pm. At 5 pm, a given amount of food (a fatty diet comprising 1.25% of cholesterol and 0.5% of cholic acid) is distributed. On the second day (D1), the food leftovers are weighed at 9 am and the mice are fasted from 9 am to 2 pm. A blood sample is taken at 2 pm. For the treated groups of mice, the compound is administered at 9 am on the second day (D1) by tubage in the form of a suspension in a 3% aqueous solution of gum. The control groups receive only the aqueous gum.
The compounds were tested at a dose of 100 mg/kg. The total serum cholesterol is assayed and the results are expressed as the percentage inhibition of the increase in cholesterolemia compared with the control group.
Turning to `CC(=O)OC[C@H]1O[C@H](Oc2ccc(C(=O)c3ccc(C#N)cc3)cc2)[C@H](OC(C)=O)[C@@H](OC(C)=O)[C@@H]1OC(C)=O` [Example 1, [4-(4-Cyanobenzoyl)phenyl]2,3,4,6-tetra-O-acetyl-α-D-glucopyranoside], the “Activity (%): percentage inhibition of the increase in cholesterolemia compared with the control group” value is given as −27%.

On to `N#Cc1ccc(C(=O)c2ccc(O[C@H]3O[C@H](CO)[C@@H](O)[C@H](O)[C@H]3O)cc2)cc1` [Example 2, [4-(4-Cyanobenzoyl)phenyl]α-D-glucopyranoside], for which the “Activity (%): percentage inhibition of the increase in cholesterolemia compared with the control group” value is −23%.

For the compound `CC(=O)OC[C@H]1O[C@H](Oc2ccc(C(=O)c3ccc(C#N)cc3)cc2)[C@@H](OC(C)=O)[C@@H](OC(C)=O)[C@@H]1OC(C)=O` [Example 3, [4-(4-Cyanobenzoyl)phenyl]2,3,4,6-tetra-O-acetyl-α-D-mannopyranoside], the “Activity (%): percentage inhibition of the increase in cholesterolemia compared with the control group” value is listed as −10%.

On to `N#Cc1ccc(C(=O)c2ccc(O[C@H]3O[C@H](CO)[C@@H](O)[C@H](O)[C@@H]3O)cc2)cc1` [Example 4, [4-(4-Cyanobenzoyl)phenyl]α-D-mannopyranoside], for which the “Activity (%): percentage inhibition of the increase in cholesterolemia compared with the control group” value is listed as −38%.

For the compound `CC(=O)OC[C@H]1O[C@H](Oc2ccc(C(=O)c3ccc(C#N)cc3)cc2)[C@H](OC(C)=O)[C@@H](OC(C)=O)[C@H]1OC(C)=O` [Example 5, [4-(4-Cyanobenzoyl)phenyl]2,3,4,6-tetra-O-acetyl-α-D-galactopyranoside], the “Activity (%): percentage inhibition of the increase in cholesterolemia compared with the control group” value is −32%.

With `N#Cc1ccc(C(=O)c2ccc(O[C@H]3O[C@H](CO)[C@H](O)[C@H](O)[C@H]3O)cc2)cc1` [Example 6, [4-(4-Cyanobenzoyl)phenyl]α-D-galactopyranoside], the “Activity (%): percentage inhibition of the increase in cholesterolemia compared with the control group” value is −35%.

With `CC(=O)O[C@@H]1[C@@H](Oc2ccc(C(=O)c3ccc(C#N)cc3)cc2)OC[C@@H](OC(C)=O)[C@H]1OC(C)=O` [Example 7, [4-(4-Cyanobenzoyl)phenyl]2,3,4-tri-O-acetyl-α-D-arabinopyranoside], the “Activity (%): percentage inhibition of the increase in cholesterolemia compared with the control group” value was −25%.

For the compound `N#Cc1ccc(C(=O)c2ccc(O[C@H]3OC[C@@H](O)[C@@H](O)[C@@H]3O)cc2)cc1` [Example 8, [4-(4-Cyanobenzoyl)phenyl]α-D-arabinopyranoside], the “Activity (%): percentage inhibition of the increase in cholesterolemia compared with the control group” value is listed as −29%.

`N#Cc1ccc(C(=O)c2ccc(O[C@H]3OC[C@@H](O)[C@H](O)[C@@H]3O)cc2)cc1` [Example 10, [4-(4-Cyanobenzoyl)phenyl]α-D-lyxopyranoside]: the “Activity (%): percentage inhibition of the increase in cholesterolemia compared with the control group” value was −48%.

Take `N#Cc1ccc(C(=O)c2ccc(O[C@H]3OC[C@@H](O)[C@@H](O)[C@H]3O)cc2)cc1` [Example 11, [4-(4-Cyanobenzoyl)phenyl]α-D-ribopyranoside]: the “Activity (%): percentage inhibition of the increase in cholesterolemia compared with the control group” value is reported as −26%.
